Measurements from PubChem BioAssay AID463235 (The Scripps Research Institute Molecular Screening Center, 2010).
Calls of active or inactive are those of the source. How the calls were made is not given here.

Assay: inhibitors of HCV replicon RNA replication – cell-based, luminescence, HCV NS3 helicase inhibitor project, late-stage follow-up (AID 463235)
Conditions: HCV replicon cells, RNA blot hybridization, 3 days; for IC90: measured here: 90% replicon inhibition

IC50	IC90	SMILES
> 10 µM (inactive)	> 10 µM	CCOc1cccc(C2C(C(=O)c3ccc(C)o3)=C(O)C(=O)N2Cc2ccccc2)c1 (centres undefined)
> 10 µM (inactive)	> 10 µM	COc1cccc(-n2c(SCc3cc(=O)oc4cc(O)c(O)cc34)nc3ccccc3c2=O)c1
> 10 µM (inactive)	> 10 µM	Cc1ccc(C(=O)C2=C(O)C(=O)N(Cc3ccco3)C2c2cccc(Cl)c2)o1 (centres undefined)
> 10 µM (inactive)	> 10 µM	COc1ccc(C=NNC(=O)c2cc(O)c(O)c(O)c2)cc1COc1ccc(C(=O)OCC(C)C)cc1
> 10 µM (inactive)	> 10 µM	COc1cc(C2C(C(=O)c3ccc(C)o3)=C(O)C(=O)N2c2cc(C)on2)ccc1OCc1ccccc1 (centres undefined)
> 10 µM (inactive)	> 10 µM	CCCCCOc1ccc(C2C(C(=O)c3ccc(C)o3)=C(O)C(=O)N2c2cc(C)on2)cc1 (centres undefined)
> 10 µM (inactive)	> 10 µM	Cc1cc(N2C(=O)C(O)=C(C(=O)c3ccc(C)o3)C2c2ccc(OCc3ccccc3)cc2)no1 (centres undefined)
